Structures can show the parent of a compound that is named as a salt.

Among the data in US6710080B2, “Substituted 2-dialkylaminoalkylbiphenyl derivatives” (Gruenenthal GmbH, priority 1999, dated 2004) are melting point, ED50 and inhibition values, retold here.

For data set [1], the system named is phenylquinone-induced writhing in mice. Briefly: Writhing test in mice. Format: in vivo. The note with it: Mus musculus, male NMRI mice; for ED50: iv, intravenously, regression analysis of dose-dependent decrease in writhing reactions; for inhibition at 10 mg/kg: 10 mg/kg intravenously 10 minutes before phenylquinone i.p., writhing counted 5-20 minutes after phenylquinone, read-out: % Inhibition of the writhing reaction with 10 mg/kg intravenously. The method, then: The analgesic activity was investigated on phenylquinone-induced writhing in mice (modified by I. C. Hendershot, J. Forsaith, J. Pharmacol. Exp. Ther. 125, 237-240 (1959)). Male NMRI mice weighing 25-30 g were used for this. Groups of 10 animals per dose of substance received 0.3 ml/mouse of a 0.02% aqueous solution of phenylquinone (phenylbenzoquinone, Sigma, Deisenhofen; preparation of the solution with addition of 5% ethanol and storage in a water bath at 45° C.) as an intraperitoneal administration 10 minutes after intravenous administration of the test substances. The animals were placed individually in observation cages. The number of pain-induced extension movements (so-called writhing reactions=straightening of the body with stretching out of the hind extremities) 5-20 minutes after the administration of phenylquinone was counted by means of a push-button counter. Animals which receive only physiological saline solution were also run as a control. All the substances were tested in the standard dosage of 10 mg/kg. The percentage inhibition (% inhibition) of the writhing reaction by a substance was calculated in accordance with the following equation: [formula]
For some substances, the ED50 values with 95% confidence limits of the writhing reaction were calculated from the dose-dependent decrease in the writhing reactions compared with phenylquinone control groups investigated in parallel by means of regression analysis (evaluation program of Martens EDV Service, Eckental Germany).

In general, melting point refers to the temperature of the solid-liquid transition. For orientation: ED50 means the dose at which the effect has come halfway, by size or by number of responders. Low values mean greater potency, high ones weaker potency. Regarding `CC(=O)Nc1ccc(-c2ccccc2CN(C)C)cc1OC(F)(F)F.Cl` [Example 22, N-(2′-Dimethylaminomethyl-3-trifluoromethoxybiphenyl-4-yl)acetamide hydrochloride], the melting point is 182 °C. For the same compound, in data set [1], the ED50 was 6.05 mg/kg and the inhibition at 10 mg/kg came to 76%.

As to `CN(C)Cc1ccccc1-c1ccc(Cl)c(Cl)c1.Cl` [Example 16, (3′,4′-Dichlorobiphenyl-2-ylmethyl)dimethylamine hydrochloride], in data set [1], the 50% effect level (ED50) was put at a dose of 4.59 mg/kg and the inhibition at 10 mg/kg is 89%.

On to `CN(C)Cc1ccccc1-c1ccc(Cl)c(O)c1` [Example 25, 4-Chloro-2′-dimethylaminomethylbiphenyl-3-ol hydrochloride], for which, in data set [1], the inhibition at 10 mg/kg came to 74%.

As for `CN(C)Cc1ccccc1-c1ccc(N)c(O)c1` [Example 38, 4-Amino-2′-dimethylaminomethylbiphenyl-3-ol dihydrochloride], the inhibition at 10 mg/kg in data set [1] is 65%.

On to `CN(C)Cc1ccccc1-c1cccc(F)c1.Cl` [Example 7, (3′-Fluorobiphenyl-2-ylmethyl)dimethylamine hydrochloride], for which, in data set [1], the ED50 is 2.55 mg/kg and the inhibition at 10 mg/kg came to 90%.

As for `CN(C)Cc1ccccc1-c1cc(OC(F)(F)F)ccc1N` [Example 41, 2′-Dimethylaminomethyl-5-trifluoromethoxybiphenyl-2-ylamine dihydrochloride], in data set [1], the inhibition at 10 mg/kg was determined as 56%.

With `CN(C)Cc1ccccc1-c1cccc(Cl)c1.Cl` [Example 5, (3′-Chlorobiphenyl-2-ylmethyl)dimethylamine hydrochloride], in data set [1], the ED50 was 4.31 mg/kg and the inhibition at 10 mg/kg was found to be 68%.

Regarding `CN(C)Cc1ccccc1-c1ccc(Cl)cc1.Cl` [Example 2, (4′-Chlorobiphenyl-2-ylmethyl)dimethylamine hydrochloride], in data set [1], it took a dose of 4.55 mg/kg to reach the 50% effect level (ED50) and the inhibition at 10 mg/kg is 89%.

Consider `COc1cc(-c2ccccc2CCN(C)C)ccc1Cl` [Example 35, [2-(4′-Chloro-3′-methoxybiphenyl-2-yl)ethyl]dimethylamine hydrochloride], for which the inhibition at 10 mg/kg in data set [1] is 88%.

With `COc1cc(-c2ccccc2CN(C)C)ccc1Cl.Cl` [Example 21, (4′-Chloro-3′-methoxybiphenyl-2-ylmethyl)dimethylamine hydrochloride], in data set [1], the 50% effect level (ED50) was put at a dose of 6.78 mg/kg and the inhibition at 10 mg/kg amounted to 53%.

On to `COc1ccccc1-c1ccccc1CN(C)C.Cl` [Example 4, (2′-Methoxybiphenyl-2-ylmethyl)dimethylamine hydrochloride], for which, in data set [1], the 50% effect level (ED50) was put at a dose of 3.95 mg/kg and the inhibition at 10 mg/kg is 75%.

Take `CN(C)Cc1ccccc1-c1ccc2[nH]ccc2c1` [Example 26, [2-(1H-Indol-5-yl)benzyl]dimethylamine]: in data set [1], the ED50 amounted to 0.75 mg/kg and the inhibition at 10 mg/kg is 100%.

As for `CN(C)Cc1ccccc1-c1ccc(F)c(C(F)(F)F)c1.Cl` [Example 20, (4′-Fluoro-3′-trifluoromethylbiphenyl-2-ylmethyl)dimethyl-amine hydrochloride], in data set [1], the ED50 was found to be 4.99 mg/kg and the inhibition at 10 mg/kg amounted to 83%.

Consider `CN(C)CCc1ccccc1-c1cccc(O)c1.Cl` [Example 24, 2′-(2-Dimethylaminoethyl)biphenyl-3-ol hydrochloride], for which, in data set [1], it took a dose of 2.27 mg/kg to reach the 50% effect level (ED50) and the inhibition at 10 mg/kg was found to be 99%.

For the compound `CN(C)Cc1ccccc1-c1cc(F)cc(F)c1` [Example 39, (3′,5′-Difluorobiphenyl-2-ylmethyl)dimethylamine hydrochloride], the inhibition at 10 mg/kg in data set [1] was determined as 80%.

Take `COc1cccc(-c2ccccc2CCN(C)C)c1.Cl` [Example 10, (3′-Methoxybiphenyl-2-ylethyl)dimethylamine hydrochloride]: in data set [1], the 50% effect level (ED50) was put at a dose of 1.7 mg/kg and the inhibition at 10 mg/kg amounted to 100%.

Turning to `CN(C)Cc1ccccc1-c1cccc(F)c1F.Cl` [Example 29, (2′,3′-Difluorobiphenyl-2-ylmethyl)dimethylamine hydrochloride], in data set [1], the ED50 was determined as 5.71 mg/kg and the inhibition at 10 mg/kg stood at 83%.

With `CN(C)Cc1ccccc1-c1cc(Cl)c(N)c(Cl)c1` [Example 43, 3,5-Dichloro-2′-dimethylaminomethyl-biphenyl-4-ylamine hydrochloride], in data set [1], the inhibition at 10 mg/kg came out at 99%.

For `CN(C)Cc1ccccc1-c1cc(Cl)cc(Cl)c1` [Example 17, (3′,5′-Dichlorobiphenyl-2-ylmethyl)dimethylamine hydrochloride], the inhibition at 10 mg/kg in data set [1] came to 90%.

Turning to `COc1ccc(OC)c(-c2ccccc2CN(C)C)c1` [Example 40, (2′,5′-Dimethoxybiphenyl-2-ylmethyl)dimethylamine hydrochloride], the inhibition at 10 mg/kg in data set [1] is 57%.

Consider `CN(C)Cc1ccccc1-c1cccc(C(F)F)c1.Cl` [Example 13, (3′-Difluoromethylbiphenyl-2-ylmethyl)dimethylamine hydrochloride], for which, in data set [1], the 50% effect level (ED50) was put at a dose of 5.3 mg/kg and the inhibition at 10 mg/kg stood at 81%.

As for `CC(=O)Nc1ccc(OC(F)(F)F)cc1-c1ccccc1CN(C)C` [Example 42, N-(2′-Dimethylaminomethyl-5-trifluoromethoxybiphenyl-2-yl)acetamide hydrochloride], in data set [1], the inhibition at 10 mg/kg is 44%.

Regarding `CC(C)Oc1cccc(-c2ccccc2CCN(C)C)c1` [Example 34, [2-(3′-Isopropoxybiphenyl-2-yl)ethyl]dimethylamine hydrochloride], in data set [1], the inhibition at 10 mg/kg was determined as 80%.

As to `CN(C)Cc1ccccc1-c1ccccc1.Cl` [Example 15, biphenyl-2-ylmethyldimethylamine hydrochloride], in data set [1], the 50% effect level (ED50) was put at a dose of 3.66 mg/kg and the inhibition at 10 mg/kg came to 52%.

Consider `CN(C)Cc1ccccc1-c1ccc2c(c1)OCO2` [Example 31, (2-Benzo [1,3]dioxol-5-ylbenzyl)dimethylamine hydrochloride], for which the inhibition at 10 mg/kg in data set [1] turned out to be 94%.
